{
  "source": "patent US20120053172A1",
  "about": "(Cooperatieve MIRzorg U.A., priority 2009, published 2012)",
  "key": {"[1]": {"tested_on": "overweight patients with dyslipidemia", "settings": "in vivo; cited from earlier work"}, "insulin secretion": {"tested_on": "insulin secretion", "settings": "comparable dosages; cited from earlier work"}, "obese men [2]": {"tested_on": "obese men", "experimental": "The study was focused on detecting the early beneficial effects. […] Metformin was started in a dose of 850 mg twice daily, and was increased to 850 mg three times daily in the second week. All subjects received exercise training three times a week, and all were instructed to take a 30 minute walk after lunch and after dinner.\nDietary intake was reduced by about 30%, according to the calculation procedure described in example 1.\nA total of 19 obese men with a BMI of 30-37.5 kg/m^2 participated in the study."}, "[3]": {"tested_on": "hyperinsulinaemic patients", "settings": "maximal 200 mg/day in three dosages, eight weeks; placebo 5.0 kg; cited from earlier work"}, "obese men [4]": {"tested_on": "obese men", "settings": "one week, cited from earlier work"}, "[5]": {"tested_on": "hyperinsulinaemic obese subjects", "settings": "8-week weight-loss diet; 32 women, 3 men; cited from earlier work"}, "obese men [6]": {"tested_on": "obese men", "settings": "cited from earlier work"}, "[7]": {"tested_on": "obese hyperinsulinaemic men", "settings": "high-dose, 6 months, with moderate caloric restriction and lifestyle advice; cited from earlier work"}, "obese, healthy men": {"tested_on": "obese, healthy men", "assay": "First study: open, uncontrolled 6 month Diazoxide insulin suppression and weight loss study", "quoted_text": "Fourteen obese, healthy men were studied for 6 months in an open, uncontrolled study.\nAll subjects received dietary advice to reduce caloric intake to meet the calculated basal requirements for ideal body weight (based on the Harrison-Bennedict equation). They were also instructed to increase walking exercise to at least 30 minutes a day. […] Subsequently, the following data were recorded every month, for a period of 6 months: body weight, abdominal circumference, supine and upright blood pressure, the results of a two-day, 8-point HGM, and adverse effects.\nDZX was increased every month until a maximum of 900 mg/day was reached or until side effects occurred."}, "[8]": {"tested_on": "hyperinsulinaemic, non-diabetic adolescents", "settings": "850 mg twice daily for eight weeks; placebo 3.8%; cited from earlier work"}, "adults": {"tested_on": "adults", "settings": "2380±320 mg for six months; cited from earlier work"}, "[9]": {"settings": "oral 300 mg per day in three dosages"}, "[10]": {"settings": "after six months, mean dosage about 585 mg/day"}},
  "note": "Read-outs that look alike come from different tables or passages of the source.",
  "data": [
    {"smiles": "CCCCCCCCCCC[C@@H](C[C@@H]1OC(=O)[C@H]1CCCCCC)OC(=O)[C@H](CC(C)C)NC=O", "note": "[Orlistat]", "values": [
      {"measurement": "(placebo-subtracted) net weight loss", "setting": "[1]", "result": "~3", "unit": "kg"}
    ]},
    {"smiles": "Cc1c(C(=O)NN2CCCCC2)nn(-c2ccc(Cl)cc2Cl)c1-c1ccc(Cl)cc1", "note": "[Rimonanbant, Rimonabant]", "values": [
      {"measurement": "(placebo-subtracted) net weight loss", "setting": "[1]", "result": "about 6 kg"}
    ]},
    {"smiles": "CC(C)CC(N(C)C)C1(c2ccc(Cl)cc2)CCC1", "note": "(stereo not drawn) [Sibutramine]", "values": [
      {"measurement": "(placebo-subtracted) net weight loss", "setting": "[1]", "result": "about 5 kg"}
    ]},
    {"smiles": "CNC(=NS(=O)(=O)c1ccc(Cl)cc1)N1C[C@H](c2ccccc2)C(c2ccc(Cl)cc2)=N1", "note": "[Compound A, (4S)-3-(4-chlorophenyl)-N′-[(4-chlorophenyl)sulfonyl]-N-methyl-4-phenyl-4,5-dihydro-1-H-pyrazole-1-carboximidamide]", "values": [
      {"measurement": "inhibiting insulin secretion, compared with Diazoxide", "setting": "insulin secretion", "result": "more effective than Diazoxide"}
    ]},
    {"smiles": "CC1=NS(=O)(=O)c2cc(Cl)ccc2N1", "note": "[Diazoxide, 7-chloro-3-methyl-4H-1,2,4-benzothiadiazine-1,1-dioxide]", "values": [
      {"measurement": "decrease in fasting serum insulin", "setting": "obese men [2]; 2 months, mean±SEM, Diazoxide 100 mg twice then three times a day, Metformin 850 mg twice then three times daily", "result": "42.4±17.7", "unit": "%"},
      {"measurement": "serum glucose level before treatment", "setting": "obese men [2]; in vivo", "result": "5.7 ± 0.2", "unit": "mmol/L"},
      {"measurement": "weight loss", "setting": "[3]", "result": 9.8, "unit": "kg"},
      {"measurement": "effect on plasma glucose and insulin levels", "setting": "obese men [4]; oral 150 mg per day in three dosages", "result": "no significant effect"},
      {"measurement": "effect on plasma glucose and insulin levels", "setting": "obese men [4]; oral 225 mg per day in three dosages", "result": "no significant effect"},
      {"measurement": "effect on fasting or postprandial glucose levels", "setting": "obese men [4]; [9]", "result": "without affecting fasting or postprandial glucose levels"},
      {"measurement": "reduction of plasma insulin levels", "setting": "obese men [4]; [9]", "result": "about 20%"},
      {"measurement": "effect on weight loss", "setting": "[5]", "result": "No effect"},
      {"measurement": "body weight after treatment", "setting": "obese men [6]; [10]", "result": "about 103 kg"},
      {"measurement": "plasma level of Diazoxide", "setting": "obese men [6]; [10]", "result": "about 49 mg/l"},
      {"measurement": "body weight at start", "setting": "obese men [6]; before treatment", "result": "about 114 kg"},
      {"measurement": "weight reduction", "setting": "[7]", "result": "relevant degree of weight reduction"},
      {"measurement": "body weight after treatment", "setting": "obese, healthy men; 6 months", "result": "105.7 ± 3.8", "unit": "kg"},
      {"measurement": "other adverse effects", "setting": "obese, healthy men; 6 months", "result": "not observed"},
      {"measurement": "waist circumference after treatment", "setting": "obese, healthy men; 6 months", "result": "107.7±2.2", "unit": "cm"},
      {"measurement": "decrease of total body fat mass", "setting": "obese, healthy men; 6 months, DEXA", "result": "9.5 ± 1.9", "unit": "kg"},
      {"measurement": "reduction of fasting insulin levels", "setting": "obese, healthy men; 6 months, mean daily dose 600±54 mg, P<0.001", "result": 65, "unit": "%"},
      {"measurement": "change in total body fat mass", "setting": "obese, healthy men; 6 months, P<0.001", "result": "−23.3", "unit": "%"},
      {"measurement": "increase of fasting glucose", "setting": "obese, healthy men; 6 months, P<0.01", "result": "0.8 ± 0.3", "unit": "mmol/L"},
      {"measurement": "body weight at baseline", "setting": "obese, healthy men; baseline", "result": "115.1 ± 3.4", "unit": "kg"},
      {"measurement": "waist circumference at baseline", "setting": "obese, healthy men; baseline", "result": "116.9±1.4", "unit": "cm"}
    ]},
    {"smiles": "CN(C)C(=N)N=C(N)N", "note": "[Metformin]", "values": [
      {"measurement": "weight loss", "setting": "[8]", "result": "about 6.5%"},
      {"measurement": "weight reduction", "setting": "adults", "result": 3.24, "unit": "%"}
    ]}
  ]
}
